# Experiments:
# hGAT2 = molecular target: T1, hGAT2 (Homo sapiens, UniProt Q9NSD5); assay: hGAT2 competition uptake assay with 3H-GABA in HEK-TREx-hGAT2 cells; format: cell-based
# T1 construct: expressed in transfected cells; host or cells: HEK-TREx cells (HEK-TREx-GAT2 inducible cell line)
# T1 sequence (Q9NSD5 1-602): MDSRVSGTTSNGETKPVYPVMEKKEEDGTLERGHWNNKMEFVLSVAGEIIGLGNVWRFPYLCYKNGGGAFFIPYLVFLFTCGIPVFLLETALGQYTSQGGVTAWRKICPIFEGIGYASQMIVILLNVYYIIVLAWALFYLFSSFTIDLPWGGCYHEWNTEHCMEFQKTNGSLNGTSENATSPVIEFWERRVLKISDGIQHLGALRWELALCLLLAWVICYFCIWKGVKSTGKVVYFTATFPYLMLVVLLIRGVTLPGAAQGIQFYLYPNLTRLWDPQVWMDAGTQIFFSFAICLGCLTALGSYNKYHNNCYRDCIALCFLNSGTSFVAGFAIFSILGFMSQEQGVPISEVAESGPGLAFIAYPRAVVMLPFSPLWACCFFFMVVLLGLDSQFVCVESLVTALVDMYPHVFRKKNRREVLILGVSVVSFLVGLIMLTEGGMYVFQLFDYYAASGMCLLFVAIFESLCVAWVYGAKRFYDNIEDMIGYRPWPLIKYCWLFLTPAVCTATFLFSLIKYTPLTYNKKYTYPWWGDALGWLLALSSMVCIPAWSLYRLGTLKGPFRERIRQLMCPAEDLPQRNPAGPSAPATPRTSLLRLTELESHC
# Experimental: A modified competition uptake assay can be developed to determine the ability of a test compound(s) to inhibit the uptake of radiolabeled substrates into HEK-TREx-hGAT2 cells induced to over-express hGAT2. The results can be stated as affinities (IC50).
# The competition uptake assay is prepared as follows: Compounds are prepared for assay by diluting a 100 mM stock concentration (in DMSO) to the appropriate working concentration. Typically, seven-point dose response curves are prepared starting at a final assay concentration of 1 mM and carrying out three-fold dilutions. […]
# Scintillation fluid (200 μl) (Optiphase Supermix (Perkin Elmer) is added to each well, and the plate is covered with a 96-well adhesive plate cover and placed on a shaker for 10 minutes. The plates are counted on a 96-well plate scintillation counter for 60 sec/well. The data are analyzed using a sigmoidal dose response curve-fitting program (Prism, GraphPad, Inc, San Diego, Calif.; equation: one-site competition).
# FIG. 2 depicts the results of a competition experiment using HEK-TREx-GAT2 cells. ^3H-GABA was used as the substrate and unlabeled GABA was used as the competitor. […] Non-specific uptake was determined by measuring the uptake into cells not induced to express the transporter (“no tet”). […]
# PgP = molecular target: T2, PgP (Homo sapiens, UniProt P08183); assay: Transwell monolayer efflux assay in MDCK cells with TREx-PgP; format: cell-based; details: 2.5 nM 3H-vinblastine, 250 μM verapamil
# T2 construct: expressed in transfected cells; host or cells: MDCK cells
# Experimental: Transwell monolayer efflux assays can be performed by transfecting MDCK cells with the tetracycline-inducible TREx-PgP expression vector. The cells optionally can be transfected with a nucleic acid encoding the transporter of interest. The transfected cells are seeded on polycarbonate filter membranes in transwell dishes and grown for 3-5 days, yielding a polarized monolayer with tight junctions between cells.
# T2 sequence (P08183 whole entry): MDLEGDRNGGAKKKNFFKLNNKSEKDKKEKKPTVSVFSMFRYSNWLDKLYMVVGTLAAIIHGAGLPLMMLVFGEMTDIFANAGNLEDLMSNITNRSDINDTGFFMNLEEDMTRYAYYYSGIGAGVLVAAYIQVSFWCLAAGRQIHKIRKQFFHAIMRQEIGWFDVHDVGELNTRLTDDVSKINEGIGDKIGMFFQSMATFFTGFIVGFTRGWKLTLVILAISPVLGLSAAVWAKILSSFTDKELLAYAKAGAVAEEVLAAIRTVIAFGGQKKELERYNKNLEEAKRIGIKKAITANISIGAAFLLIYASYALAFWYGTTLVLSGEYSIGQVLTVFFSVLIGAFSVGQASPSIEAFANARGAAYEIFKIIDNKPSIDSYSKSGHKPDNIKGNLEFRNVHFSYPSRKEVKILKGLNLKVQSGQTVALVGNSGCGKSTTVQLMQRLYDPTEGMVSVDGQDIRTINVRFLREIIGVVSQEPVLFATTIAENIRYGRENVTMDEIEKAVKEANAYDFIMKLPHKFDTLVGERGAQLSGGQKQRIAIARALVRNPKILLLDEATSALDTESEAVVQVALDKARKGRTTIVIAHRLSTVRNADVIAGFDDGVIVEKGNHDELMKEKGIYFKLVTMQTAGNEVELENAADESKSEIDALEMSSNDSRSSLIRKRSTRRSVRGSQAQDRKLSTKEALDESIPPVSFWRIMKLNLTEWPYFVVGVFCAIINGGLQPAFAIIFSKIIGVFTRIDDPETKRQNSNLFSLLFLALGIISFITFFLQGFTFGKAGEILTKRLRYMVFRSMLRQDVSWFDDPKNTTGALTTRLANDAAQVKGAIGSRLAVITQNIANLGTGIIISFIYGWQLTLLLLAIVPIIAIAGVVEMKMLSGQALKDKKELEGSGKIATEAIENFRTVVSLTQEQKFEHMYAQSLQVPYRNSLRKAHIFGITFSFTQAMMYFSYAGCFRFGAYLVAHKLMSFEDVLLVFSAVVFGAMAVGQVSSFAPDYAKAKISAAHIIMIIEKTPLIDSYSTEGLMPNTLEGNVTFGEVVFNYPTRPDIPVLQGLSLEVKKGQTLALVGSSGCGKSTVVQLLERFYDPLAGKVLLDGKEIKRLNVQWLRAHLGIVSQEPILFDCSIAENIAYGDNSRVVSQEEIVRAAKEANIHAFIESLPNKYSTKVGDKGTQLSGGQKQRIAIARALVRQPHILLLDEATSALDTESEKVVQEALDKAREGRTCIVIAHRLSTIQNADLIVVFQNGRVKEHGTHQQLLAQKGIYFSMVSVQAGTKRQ
Structure (SMILES),"uptake of labeled GABA as concentration of unlabeled GABA increased (hGAT2; HEK-TREx-GAT2 cells induced to express GAT2, FIG. 2)","IC50 (hGAT2; HEK-TREx-GAT2 cells induced to express hGAT2, 3H-GABA as substrate) [µM]",Apical to basolateral transport in the presence of verapamil (PgP),Basolateral to apical transport in the presence of verapamil (PgP)
"NCCCC(=O)O [GABA, gamma-aminobutyric acid]",decreased,13,,
"CC[C@]1(O)C[C@@H]2CN(CCc3c([nH]c4ccccc34)[C@@](C(=O)OC)(c3cc4c(cc3OC)N(C)[C@H]3[C@@](O)(C(=O)OC)[C@H](OC(C)=O)[C@]5(CC)C=CCN6CC[C@]43[C@@H]65)C2)C1 [^3H-vinblastine, vinblastine]",,,strongly increased,strongly decreased

# Reference: US7700300B2, “Screening of compounds for GAT2 transporter activity” (XenoPort, Inc., priority 2005, dated 2010)
